Experimental data as given in patent publication US9675596B2, “1,2,4-thiazolidin-3-one derivatives and their use in the treatment of cancer” (Baltic Bio AB, priority 2009, dated 2017).

System: PC-3 cells
Test: Cell proliferation assay (BrdU incorporation)
Format: cell-based
Settings: Homo sapiens, serum-free, 1.25 μM, relative to vehicle control (1 unit), 18 h + 6 h BrdU, read-out: Units of BrdU incorporation
Procedure: PC-3 cancer cell lines were propagated in D-MEM (Gibco 21885) supplemented with 10% Foetal calf serum. 15000 cells per well were seeded in 96 well plates and incubated overnight. The culture media was changed to serum-free D-MEM for 24 h. The culture media was then changed to serum free D-MEM containing either 0.2% DMSO as vehicle control or 0.3, 0.6, 1.2 or 2.5 μM (or 1.25, 2.5, 5, 10 μM (as indicated in Table 1 below)) of the selected compounds of Example 1 to Example 8 in 0.2% DMSO in quadruplicate. After 18 h incubation, BrdU was added according to manufacturer's recommendations. After 6 h incubation in the presence of BrdU, the culture media was removed and BrdU incorporation was measured using “Cell Proliferation ELISA, BrdU colorimetric” Roche (11647229001) according to manufacturer's recommendations.
Proliferation rate of PC-3 cells are reduced by relevant concentrations of the test compounds as measured by BrdU incorporation.

Row | SMILES | activity at 1.25 µM [%]
1 | O=c1[nH]s/c(=N\c2ccc(Cl)c(Cl)c2)n1C(c1ccccc1)c1ccccc1 [Example 6, 4-Benzhydryl-5-(3,4-dichlorophenyl)imino-1,2,4-thiadiazolidin-3-one] | 42
2 | O=c1nc(Nc2ccc(Cl)c(Cl)c2)sn1Cc1ccc(F)c(F)c1 [Example 8c, 1,5-(3,4-dichlorophenylamino)-2-(3,4-difluorobenzyl)-[1,2,4]thiadiazol-3-one] | 7

Same assay, conditions: Homo sapiens, serum-free, 2.5 μM, relative to vehicle control (1 unit), 18 h + 6 h BrdU, read-out: Units of BrdU incorporation

Row | SMILES | activity at 2.5 µM [%]
3 | O=C(Nc1nc(=O)n(Cc2ccc(F)cc2)s1)c1ccc(OC(F)(F)F)cc1 [Example 4n, N-[2-[(4-fluorophenyl)methyl]-3-oxo-1,2,4-thiadiazol-5-yl]-4-(trifluoromethoxy)-benzamide] | 17
4 | O=c1nc(Nc2ccc(Cl)c(Cl)c2)sn1Cc1ccc(Cl)cc1 [Example 8b, 1,5-(3,4-dichlorophenylamino)-2-(4-chlorobenzyl)-[1,2,4]thiadiazol-3-one] | 18
5 | COc1ccc(Cn2sc(Nc3ccc(Cl)c(Cl)c3)nc2=O)cc1 [Example 8a, 1,5-(3,4-Dichlorophenylamino)-2-(4-methoxybenzyl)-[1,2,4]thiadiazol-3-one] | 4

Same assay, conditions: Homo sapiens, serum-free, 5 μM, relative to vehicle control (1 unit), 18 h + 6 h BrdU, read-out: Units of BrdU incorporation

Row | SMILES | activity at 5 µM [%]
6 | N#Cc1ccc(Nc2nc(=O)n(Cc3ccc(F)c(F)c3)s2)cc1 [Example 8w, 4-[[2-[(3,4-difluorophenyl)methyl]-3-oxo-1,2,4-thiadiazol-5-yl]amino]benzonitrile] | 28
7 | O=c1nc(Nc2ccc(C(F)(F)F)cc2)sn1Cc1cccc(F)c1 [Example 8q, 2-[(3-fluorophenyl)methyl]-5-[[4-(trifluoromethyl)phenyl]amino]-1,2,4-thiadiazol-3-one] | 15
8 | O=c1nc(Nc2ccc(OC(F)(F)F)cc2)sn1Cc1ccc(F)c(F)c1 [Example 8l, 2-[(3,4-difluorophenyl)methyl]-5-[[4-(trifluoromethoxy)phenyl]amino]-1,2,4-thiadiazol-3-one] | 10
9 | O=C(Nc1nc(=O)n(C2(c3ccc(F)cc3)CC2)s1)c1ccc(Cl)c(Cl)c1 [Example 4i, 3,4-dichloro-N-[2-[1-(4-fluorophenyl)cyclopropyl]-3-oxo-1,2,4-thiadiazol-5-yl]benzamide] | 10
10 | O=c1nc(Nc2ccc(Cl)c(Cl)c2)sn1CCc1ccccc1 [Example 8f, 5-(3,4-dichlorophenylamino)-2-phenethyl-[1,2,4]thiadiazol-3-one] | 8
11 | O=c1nc(Nc2ccc(C(F)(F)F)cc2)sn1Cc1ccc(Cl)cc1 [Example 8p, 2-[(4-chlorophenyl)methyl]-5-[[4-(trifluoromethyl)phenyl]amino]-1,2,4-thiadiazol-3-one] | 7
12 | O=c1[nH]s/c(=N\c2ccc(Cl)c(Cl)c2)n1Cc1ccccc1 [Example 2e] | 17
13 | O=c1nc(Nc2ccc(C(F)(F)F)cc2)sn1Cc1ccc(F)c(F)c1 [Example 8k, 2-[(3,4-difluorophenyl)methyl]-5-[[4-(trifluoromethyl)phenyl]amino]-1,2,4-thiadiazol-3-one] | 4
14 | O=c1nc(Nc2ccc(C(F)(F)F)cc2)sn1CCc1ccccc1 [Example 8r, 2-[phenylethyl]-5-[[4-(trifluoromethyl)phenyl]amino]-1,2,4-thiadiazol-3-one] | 58

Same assay, conditions: Homo sapiens, serum-free, 10 μM, relative to vehicle control (1 unit), 18 h + 6 h BrdU, read-out: Units of BrdU incorporation

Row | SMILES | activity at 10 µM [%]
15 | O=C(Cc1ccc(F)cc1)Nc1nc(=O)n(Cc2cccc(C(F)(F)F)c2)s1 [Example 4b, 2-(4-fluorophenyl)-N-[3-oxo-2-[[3-(trifluoromethyl)phenyl]methyl]-1,2,4-thiadiazol-5-yl]acetamide] | 72
16 | O=C(Nc1nc(=O)n(Cc2ccc(F)cc2)s1)c1cc(C(F)(F)F)cc(C(F)(F)F)c1 [Example 4o, N-[2-[(4-fluorophenyl)methyl]-3-oxo-1,2,4-thiadiazol-5-yl]-3,5-bis(trifluoromethyl)-benzamide] | 28
17 | O=C(Nc1nc(=O)n(Cc2ccc(F)cc2)s1)c1ccc(Cl)cc1Cl [Example 4m, 2,4-dichloro-N-[2-[(4-fluorophenyl)methyl]-3-oxo-1,2,4-thiadiazol-5-yl]benzamide] | 23
18 | O=c1[nH]s/c(=N\c2ccc(Cl)c(Cl)c2)n1CCOc1ccccc1 [Example 5a, 5-(3,4-dichlorophenyl)imino-4-(2-phenoxyethyl)-1,2,4-thiadiazolidin-3-one] | 37
19 | O=C(Nc1nc(=O)n(Cc2ccc(F)cc2)s1)c1ccc(Cl)cc1 [Example 4d, 4-chloro-N-[2-[(4-fluorophenyl)methyl]-3-oxo-1,2,4-thiadiazol-5-yl]benzamide] | 61.2
20 | CN(CCn1c(=O)[nH]s/c1=N\c1ccc(Cl)c(Cl)c1)c1ccc(Cl)cc1 [Example 2g, 4-[2-[(4-chlorophenyl)-methyl-amino]ethyl]-5-(3,4-dichlorophenyl)imino-1,2,4-thiadiazolidin-3-one] | 14
21 | O=C(Nc1nc(=O)n(Cc2ccc(Cl)cc2)s1)c1ccc(Cl)cc1 [Example 4e, 4-chloro-N-[2-[(4-chlorophenyl)methyl]-3-oxo-1,2,4-thiadiazol-5-yl]benzamide] | 35.5
22 | O=C(Nc1nc(=O)n(Cc2ccc(F)c(F)c2)s1)c1ccc(Cl)cc1 [Example 4c, 4-chloro-N-[2-[(3,4-difluorophenyl)methyl]-3-oxo-1,2,4-thiadiazol-5-yl]benzamide] | 39.3
23 | O=C(Nc1nc(=O)n(Cc2cccc(C(F)(F)F)c2)s1)c1ccccc1 [Example 3, N-[3-oxo-2-[[3-(trifluoromethyl)phenyl]methyl]-1,2,4-thiadiazol-5-yl]benzamide] | 70
24 | O=C(Nc1nc(=O)n(Cc2ccc(F)cc2)s1)c1ccc(F)c(F)c1 [Example 4p, 3,4-difluoro-N-[2-[(4-fluorophenyl)methyl]-3-oxo-1,2,4-thiadiazol-5-yl]benzamide] | 26
25 | O=C(Nc1nc(=O)n(Cc2cccc(C(F)(F)F)c2)s1)c1ccc(F)cc1 [Example 4a, 4-fluoro-N-[3-oxo-2-[[3-(trifluoromethyl)phenyl]methyl]-1,2,4-thiadiazol-5-yl]benzamide] | 30.9
26 | O=c1nc(Nc2ccc(Cl)c(Cl)c2)sn1CCOc1ccccc1 [Example 5b, 5-(3,4-Dichloro-phenylamino)-2-(2-phenoxy-ethyl)-[1,2,4]thiadiazol-3-one] | 14
27 | O=C(Nc1nc(=O)n(Cc2ccc(F)cc2)s1)c1c(Cl)cccc1Cl [Example 4l, 2,6-dichloro-N-[2-[(4-fluorophenyl)methyl]-3-oxo-1,2,4-thiadiazol-5-yl]benzamide] | 20
